Measured values taken from patent publication US20250042889A1, “3CLPRO PROTEASE INHIBITOR” (SHANGHAI QILU PHARMACEUTICAL RESEARCH AND DEVELOPMENT …, priority 2021, published 2025).

These compounds were tested against SARS-COV-2 3CLpro/Mpro protease (Severe acute respiratory syndrome coronavirus 2 (2019-nCoV) (SARS-CoV-2), UniProt P0DTD1) (assay: Inhibitory effect on SARS-COV-2 3CLpro/Mpro protease by fluorescence resonance energy transfer). Conditions: IC50 (nM), Inhibition on SARS-CoV-2 3CLpro/Mpro protease, activity intervals A-D.
Type: biochemical

| SMILES | IC50 [nM] |
| --- | --- |
| CNc1cncc(C(=O)N2CCC[C@@H](Nc3c(C(=O)N4CC5CC(C4)O5)cc(Br)cc3[N+](=O)[O-])C2)c1 [Example 266] | 10 to 50 |
| CNc1cncc(C(=O)N2CCC[C@@H](Nc3c(C(=O)N4CC5CCC(C4)N5)cc(Br)cc3[N+](=O)[O-])C2)c1 [Example 276] | 10 to 50 |

Same assay, conditions: activity intervals A-D, read-out: IC50 (nM), Inhibition on SARS-CoV-2 3CLpro/Mpro protease

| SMILES | IC50 [nM] |
| --- | --- |
| C[C@@H]1CN(C(=O)c2cc(Br)cc([N+](=O)[O-])c2N[C@@H]2COCC[C@@H]2NC(=O)c2cncc3cc(Cl)ccc23)C[C@H](C)N1 [Example 228] | 10 to 50 |
| CNc1cncc(C(=O)N2CCC[C@@H](Nc3c(C(=O)N4CCC5(CCOC5)CC4)cc(Br)cc3[N+](=O)[O-])C2)c1 [Example 230] | < 10 |
| CNc1cncc(C(=O)N[C@H]2CCCC[C@H]2Nc2c(C(=O)N3CCO[C@@H](C)C3)cc(Br)cc2[N+](=O)[O-])c1 [Example 231] | 10 to 50 |
| CNc1cncc(C(=O)N2CCC[C@@H](Nc3c(C(=O)N4CC5COCC5C4)cc(Br)cc3[N+](=O)[O-])C2)c1 (some centres unmarked) [Example 232] | 10 to 50 |
| CNc1cncc(C(=O)N2CCC[C@@H](Nc3c(C(=O)N4C[C@@H](C)N(CCOC)[C@@H](C)C4)cc(Br)cc3[N+](=O)[O-])C2)c1 [Example 233] | 50 to 100 |
| CNc1cncc(C(=O)N[C@H]2CCOC[C@H]2Nc2c(C(=O)N3CCC[C@H](C)C3)cc(Br)cc2[N+](=O)[O-])c1 [Example 234] | 10 to 50 |
| CNc1cncc(C(=O)N2CCC[C@@H](Nc3c(C(=O)N4CCN(C5CCOCC5)CC4)cc(Br)cc3[N+](=O)[O-])C2)c1 [Example 235] | 10 to 50 |
| CNc1cncc(C(=O)N2CCC[C@@H](Nc3c(C(=O)N4CCC5(CC4)COC5)cc(Br)cc3[N+](=O)[O-])C2)c1 [Example 236] | 10 to 50 |
| CNc1cncc(C(=O)N[C@H]2CCCC[C@H]2Nc2c(C(=O)N3CCO[C@H](C)C3)cc(Br)cc2[N+](=O)[O-])c1 [Example 237] | 10 to 50 |
| CNc1cncc(C(=O)N2CCC[C@@H](Nc3c(C(=O)N4CCN(CCOC)[C@H](C)C4)cc(Br)cc3[N+](=O)[O-])C2)c1 [Example 238] | 10 to 50 |
| CNc1cncc(C(=O)N2CCC[C@@H](Nc3c(C(=O)N4CCC[C@H](OC)C4)cc(Br)cc3[N+](=O)[O-])C2)c1 [Example 239] | 10 to 50 |
| CNc1cncc(C(=O)N2CCC[C@@H](Nc3c(C(=O)N4CCC(O)(C(F)(F)F)CC4)cc(Br)cc3[N+](=O)[O-])C2)c1 [Example 240] | 10 to 50 |
| CNc1cncc(C(=O)N2CCC[C@@H](Nc3c(C(=O)N4CCC(C)(O)CC4)cc(Br)cc3[N+](=O)[O-])C2)c1 [Example 241] | 10 to 50 |
| CNc1cncc(C(=O)N2CCC[C@@H](Nc3c(C(=O)N4C[C@H](C)N(CCOC)[C@@H](C)C4)cc(Br)cc3[N+](=O)[O-])C2)c1 [Example 242] | 10 to 50 |
| CNc1cncc(C(=O)N2CCC[C@@H](Nc3c(C(=O)N4CC[C@H](OC)C4)cc(Br)cc3[N+](=O)[O-])C2)c1 [Example 244] | 10 to 50 |
| CNc1cncc(C(=O)N2C[C@H](Nc3c(C(=O)N4CCCCC4)cc(Br)cc3[N+](=O)[O-])C(C)(O)C2)c1 (some centres unmarked) [Example 245] | 50 to 100 |
| CC1(O)CN(C(=O)c2cncc(Br)c2)C[C@@H]1Nc1c(C(=O)N2CCCCC2)cc(Br)cc1[N+](=O)[O-] (some centres unmarked) [Example 246] | 10 to 50 |
| CNc1cncc(C(=O)N2CCC[C@@H](Nc3c(C(=O)N4CCN(CCOC)[C@@H](C)C4)cc(Br)cc3[N+](=O)[O-])C2)c1 [Example 247] | 10 to 50 |
| CNc1cncc(C(=O)N2CCC[C@@H](Nc3c(C(=O)N4CCC(C)CC4)cc(Br)cc3[N+](=O)[O-])C2)c1 [Example 248] | 10 to 50 |

| SMILES | IC50 [nM] |
| --- | --- |
| COCCN1CCN(C(=O)c2cc(Br)cc([N+](=O)[O-])c2N[C@@H]2CCCN(C(=O)[C@H]3CC(=O)N[C@@H](C)C3)C2)CC1 [Example 249] | 10 to 50 |
| CNc1cncc(C(=O)N2CCC[C@@H](Nc3c(C(=O)N4CCC5(CCOCC5)CC4)cc(Br)cc3[N+](=O)[O-])C2)c1 [Example 250] | 10 to 50 |
| CNc1cncc(C(=O)N2CCC[C@@H](Nc3c(C(=O)N4C[C@H](C)C[C@H](C)C4)cc(Br)cc3[N+](=O)[O-])C2)c1 [Example 251] | 50 to 100 |
| CNc1cncc(C(=O)N2CCC[C@@H](Nc3c(C(=O)N4CCC(C)(C)CC4)cc(Br)cc3[N+](=O)[O-])C2)c1 [Example 252] | 10 to 50 |
| CNc1cncc(C(=O)N2CCC[C@@H](Nc3c(C(=O)N4CCC[C@@H](C)C4)cc(Br)cc3[N+](=O)[O-])C2)c1 [Example 253] | 50 to 100 |
| C[C@@H]1CN(C(=O)c2cc(Br)cc([N+](=O)[O-])c2N[C@@H]2CCCN(C(=O)[C@H]3CC(=O)N[C@@H](C)C3)C2)C[C@H](C)O1 [Example 254] | 10 to 50 |
| CNc1cncc(C(=O)N2CCC[C@@H](Nc3c(C(=O)N4CCC(F)(F)C4)cc(Br)cc3[N+](=O)[O-])C2)c1 [Example 255] | 10 to 50 |
| CNc1cncc(C(=O)N2CCC[C@@H](Nc3c(C(=O)N4CCC[C@H](C)C4)cc(Br)cc3[N+](=O)[O-])C2)c1 [Example 256] | 10 to 50 |
| CNc1cncc(C(=O)N2CCC[C@@H](Nc3c(C(=O)N4C[C@@H](C)C[C@H](C)C4)cc(Br)cc3[N+](=O)[O-])C2)c1 [Example 257] | 10 to 50 |
| CNc1cncc(C(=O)N2CCC[C@@H](Nc3c(C(=O)N4CC(C)CC(O)C4)cc(Br)cc3[N+](=O)[O-])C2)c1 (some centres unmarked) [Example 258] | 10 to 50 |
| CNc1cncc(C(=O)N[C@H]2CCOC[C@H]2Nc2c(C(=O)N3C[C@@H](C)O[C@H](C)C3)cc(Br)cc2[N+](=O)[O-])c1 [Example 259] | 10 to 50 |
| CCNc1cncc(C(=O)N2CCC[C@@H](Nc3c(C(=O)N4CCCCC4)cc(Br)cc3[N+](=O)[O-])C2)c1 [Example 260] | 10 to 50 |
| CSc1cncc(C(=O)N2CCC[C@@H](Nc3c(C(=O)N4CCCCC4)cc(Br)cc3[N+](=O)[O-])C2)c1 [Example 261] | 10 to 50 |
| C[C@H]1C[C@H](C)CN(C(=O)c2cc(Br)cc([N+](=O)[O-])c2N[C@@H]2CCCN(C(=O)[C@H]3CC(=O)N[C@@H](C)C3)C2)C1 [Example 262] | 10 to 50 |
| CNc1cncc(C(=O)N2CCC[C@@H](Nc3c(C(=O)N4CC(N)CC(F)(F)C4)cc(Br)cc3[N+](=O)[O-])C2)c1 (some centres unmarked) [Example 263] | 10 to 50 |
| O=C1C[C@H](C(=O)N2CCC[C@@H](Nc3c(C(=O)N4CCCCC4)cc(Br)cc3[N+](=O)[O-])C2)c2ccccc2N1 [Example 264] | 10 to 50 |
| O=C1C[C@@H](C(=O)N2CCC[C@@H](Nc3c(C(=O)N4CCCCC4)cc(Br)cc3[N+](=O)[O-])C2)c2ccccc2N1 [Example 265] | 10 to 50 |
| CNc1cncc(C(=O)N2CCC[C@@H](Nc3c(C(=O)N4CCc5ccsc5C4)cc(Br)cc3[N+](=O)[O-])C2)c1 [Example 267] | 10 to 50 |
| CNc1cncc(C(=O)N2CCC[C@@H](Nc3c(C(=O)N4CCC5(CCCO5)CC4)cc(Br)cc3[N+](=O)[O-])C2)c1 [Example 268] | < 10 |

| SMILES | IC50 [nM] |
| --- | --- |
| CNc1cncc(C(=O)N2CCC[C@@H](Nc3c(C(=O)N4CC5CCC(C4)O5)cc(Br)cc3[N+](=O)[O-])C2)c1 [Example 269] | 10 to 50 |
| CNc1cncc(C(=O)N2CCC[C@@H](Nc3c(C(=O)N4CCC5(CCCCO5)CC4)cc(Br)cc3[N+](=O)[O-])C2)c1 [Example 270] | 10 to 50 |
| CNc1cncc(C(=O)N2CCC[C@@H](Nc3c(C(=O)N4Cc5cccnc5C4)cc(Br)cc3[N+](=O)[O-])C2)c1 [Example 271] | 10 to 50 |
| CNc1cncc(C(=O)N2CCC[C@@H](Nc3c(C(=O)N4CCC5(CCNCC5)CC4)cc(Br)cc3[N+](=O)[O-])C2)c1 [Example 272] | 10 to 50 |
| CNc1cncc(C(=O)N2CCC[C@@H](Nc3c(C(=O)N4CC(F)(F)C(F)(F)C4)cc(Br)cc3[N+](=O)[O-])C2)c1 [Example 273] | 10 to 50 |
| C[C@@H]1CN(C(=O)c2cc(Br)cc([N+](=O)[O-])c2N[C@@H]2CCCN(C(=O)[C@H]3CC(=O)Nc4ccccc43)C2)C[C@H](C)O1 [Example 274] | < 10 |
| CNc1cncc(C(=O)N2CCC[C@@H](Nc3c(C(=O)N4CCC(C)(OC)CC4)cc(Br)cc3[N+](=O)[O-])C2)c1 [Example 275] | 10 to 50 |
| CNc1cncc(C(=O)N2CCC[C@@H](Nc3c(C(=O)N4CCc5sccc5C4)cc(Br)cc3[N+](=O)[O-])C2)c1 [Example 277] | 10 to 50 |
| CNc1cncc(C(=O)N2CCC[C@@H](Nc3c(C(=O)N4Cc5c[nH]nc5C4)cc(Br)cc3[N+](=O)[O-])C2)c1 [Example 278] | 10 to 50 |
| CNc1cncc(C(=O)N2CCC[C@@H](Nc3c(C(=O)N4CCC(F)(F)CC4)cc(Br)cc3[N+](=O)[O-])C2)c1 [Example 279] | 10 to 50 |
| CNc1cncc(C(=O)N2CCC[C@@H](Nc3c(C(=O)N4CCC5(CCCN5)CC4)cc(Br)cc3[N+](=O)[O-])C2)c1 [Example 280] | 10 to 50 |
| CNc1cncc(C(=O)N2CCC[C@@H](Nc3c(C(=O)N4CCC(OC)(C(F)(F)F)CC4)cc(Br)cc3[N+](=O)[O-])C2)c1 [Example 281] | 50 to 100 |
| C[C@@H]1CN(C(=O)c2cc(Br)cc([N+](=O)[O-])c2N[C@@H]2CCCN(C(=O)[C@H]3CC(=O)Nc4ccccc43)C2)CCO1 [Example 282] | 10 to 50 |
| C[C@H]1CN(C(=O)c2cc(Br)cc([N+](=O)[O-])c2N[C@@H]2CCCN(C(=O)[C@H]3CC(=O)Nc4ccccc43)C2)CCO1 [Example 283] | 10 to 50 |
| CNc1cncc(C(=O)N2CCC[C@@H](Nc3c(C(=O)N4Cc5cnn(C)c5C4)cc(Br)cc3[N+](=O)[O-])C2)c1 [Example 284] | 10 to 50 |
| CNc1cncc(C(=O)N2CCC[C@@H](Nc3c(C(=O)N4CCC5(CCO5)CC4)cc(Br)cc3[N+](=O)[O-])C2)c1 [Example 285] | 10 to 50 |
| CNc1cncc(C(=O)N2CCC[C@@H](Nc3c(C(=O)N4CCO[C@H](C(F)(F)F)C4)cc(Br)cc3[N+](=O)[O-])C2)c1 [Example 286] | 10 to 50 |
| COCCN1CCN(C(=O)c2cc(Br)cc([N+](=O)[O-])c2N[C@H]2CN(C(=O)c3cncc(Br)c3)CC2(C)O)CC1 (some centres unmarked) [Example 287] | 10 to 50 |
| CNc1cncc(C(=O)N2CCC[C@@H](Nc3c(C(=O)N4CCO[C@@H](C(F)(F)F)C4)cc(Br)cc3[N+](=O)[O-])C2)c1 [Example 288] | 10 to 50 |
